Data on four compounds can be found in article PMC8513526, “An Advanced Automated Patch Clamp Protocol Design to Investigate Drug—Ion Channel Binding Dynamics” (Frontiers in Pharmacology, 2021).

Where two headings read alike, the source gives them in different places.

Format in all cases: cell-based
Test [1] addresses T1, rNaV1.4 (Rattus norvegicus, UniProt P15390).
T1 construct: gene Scn4a; recombinant rNaV1.4 channel stably expressed in HEK 293 cells
Put plainly: automated patch clamp (IonFlux Mercury ensemble recording; Port-a-Patch single-cell validation), […]. A general note: In patch-clamp work, channel activity is measured electrically.

Test [2] deals with T1, rNaV1.4. Put plainly: automated patch clamp (IonFlux Mercury), […].
Test [3] deals with T1, rNaV1.4. Put plainly: automated patch clamp (IonFlux Mercury ensemble recording; Port-a-Patch single-cell validation), […]. This is another data set of the same source.
The target of test [4] is T1, rNaV1.4. Put plainly: automated patch clamp (IonFlux Mercury), […]; inhibition of pulse #[…] peak current at […].

T1 sequence (P15390 whole entry): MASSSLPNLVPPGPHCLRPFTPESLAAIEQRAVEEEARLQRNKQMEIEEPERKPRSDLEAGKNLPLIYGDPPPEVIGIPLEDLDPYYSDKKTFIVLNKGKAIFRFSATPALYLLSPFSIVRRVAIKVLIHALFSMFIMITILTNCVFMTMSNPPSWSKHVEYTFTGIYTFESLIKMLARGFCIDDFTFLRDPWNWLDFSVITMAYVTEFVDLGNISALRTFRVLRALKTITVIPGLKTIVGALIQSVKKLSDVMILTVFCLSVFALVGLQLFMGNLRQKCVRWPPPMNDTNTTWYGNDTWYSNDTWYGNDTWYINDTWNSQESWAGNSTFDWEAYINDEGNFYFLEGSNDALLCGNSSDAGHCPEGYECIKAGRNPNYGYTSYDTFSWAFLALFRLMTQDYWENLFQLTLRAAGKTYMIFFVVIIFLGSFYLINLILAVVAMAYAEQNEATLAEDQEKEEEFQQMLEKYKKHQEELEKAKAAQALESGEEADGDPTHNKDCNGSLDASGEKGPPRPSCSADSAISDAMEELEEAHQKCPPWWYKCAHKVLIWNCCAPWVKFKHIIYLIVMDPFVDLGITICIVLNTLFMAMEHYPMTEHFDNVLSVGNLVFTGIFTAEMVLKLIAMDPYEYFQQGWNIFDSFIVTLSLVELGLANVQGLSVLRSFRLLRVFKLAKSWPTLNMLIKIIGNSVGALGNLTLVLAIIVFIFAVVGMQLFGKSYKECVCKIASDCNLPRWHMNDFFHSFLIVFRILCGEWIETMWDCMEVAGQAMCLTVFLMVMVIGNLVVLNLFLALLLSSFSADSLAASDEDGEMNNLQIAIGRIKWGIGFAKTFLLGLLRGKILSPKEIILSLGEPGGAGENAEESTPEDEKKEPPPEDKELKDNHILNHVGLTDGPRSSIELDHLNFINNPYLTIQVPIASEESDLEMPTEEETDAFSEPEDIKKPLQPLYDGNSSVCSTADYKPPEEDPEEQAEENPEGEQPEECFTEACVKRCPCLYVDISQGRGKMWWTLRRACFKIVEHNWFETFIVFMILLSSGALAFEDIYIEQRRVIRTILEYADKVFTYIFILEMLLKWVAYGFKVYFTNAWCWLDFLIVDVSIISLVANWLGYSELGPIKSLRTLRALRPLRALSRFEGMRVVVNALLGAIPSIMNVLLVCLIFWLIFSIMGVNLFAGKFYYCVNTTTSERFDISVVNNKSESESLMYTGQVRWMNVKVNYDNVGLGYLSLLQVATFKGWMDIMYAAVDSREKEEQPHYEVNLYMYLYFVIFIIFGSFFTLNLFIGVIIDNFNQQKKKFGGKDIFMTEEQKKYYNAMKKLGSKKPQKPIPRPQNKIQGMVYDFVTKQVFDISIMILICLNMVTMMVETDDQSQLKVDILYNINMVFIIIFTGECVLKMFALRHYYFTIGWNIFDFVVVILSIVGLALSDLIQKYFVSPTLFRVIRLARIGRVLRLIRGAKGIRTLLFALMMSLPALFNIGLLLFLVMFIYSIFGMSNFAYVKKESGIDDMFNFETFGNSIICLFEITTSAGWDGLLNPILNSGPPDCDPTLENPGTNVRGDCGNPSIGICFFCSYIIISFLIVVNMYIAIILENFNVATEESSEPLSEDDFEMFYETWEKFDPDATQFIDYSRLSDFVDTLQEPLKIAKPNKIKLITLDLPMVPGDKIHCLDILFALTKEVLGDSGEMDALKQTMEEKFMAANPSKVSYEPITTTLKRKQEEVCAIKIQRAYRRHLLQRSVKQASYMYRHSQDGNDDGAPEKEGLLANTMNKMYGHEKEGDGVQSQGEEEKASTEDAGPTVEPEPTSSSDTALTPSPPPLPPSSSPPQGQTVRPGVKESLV

For `Nc1nc2ccc(OC(F)(F)F)cc2s1` [riluzole], at rNaV1.4 [1], the “automated patch clamp (IonFlux Mercury ensemble recording); Port-a-Patch single-c” value is “riluzole caused no change in either the contribution or the value of the slow time constant but caused a radical”. As for `CN(C)CCCN1c2ccccc2Sc2ccc(Cl)cc21` [chlorpromazine], the “automated patch clamp (IonFlux Mercury), 10 and 30 μM” value at rNaV1.4 [2] is “inhibition by chlorpromazine was not much relieved throughout the whole 17-pulse sweep”. For the compound `CCN(CC)CC(=O)Nc1c(C)cccc1C` [lidocaine], on rNaV1.4 [3], the “automated patch clamp (IonFlux Mercury ensemble recording); Port-a-Patch single-c” value is on record as “lidocaine caused a slowing of the fast time constant of recovery, which was moderate at lower concentrations”.

Broadly, the inhibition is the drop in the measured response relative to a control, in per cent. The low end stands for a response near the control, the high end for a response far below the control. Compound `CN(C)CCCN1c2ccccc2CCc2ccccc21` [imipramine] returned an inhibition at 30 µM on rNaV1.4 [4] of 50 to 55%.
